From US20020127605A1 (priority 2000, published 2002) come the findings set out here.

Like-named read-outs stand apart in the source and are kept apart here.

Assay [1] has as its target T1, human recombinant CyPA (Homo sapiens, UniProt P62937). In words: Rotamase inhibition, chymotrypsin-coupled cuvette assay (asterisked values). Type of assay: biochemical. The text has this: (§1) A number of substrates for rotamase are known in the art or can be derived from those known. Typically, the substrate contacts a sample containing a protein with rotamase activity and the conversion of the substrate is detected after a period of time. The method for detecting conversion of the substrate will vary with the particular substrate chosen. One method has been termed the Ki test (See Harding, et al., Nature, 341:758-760 (1989). The cis-trans isomerization of an alanine-proline bond in a model substrate, N-succinyl-Ala-Ala-Pro-Phe-p-nitroanilide, is monitored spectrophotometrically in a chymotrypsin-coupled assay. The action of chymotrypsin releases p-nitroaniline from only the trans form of the substrate. The amount of p-nitroaniline can be monitored in a spectrophotometer, for example. Other methods of detecting the presence of p-nitroaniline can also be used. The inhibition of this reaction caused by different concentrations of inhibitor is determined and the data are analyzed as a change in first-order rate constant as a function of inhibitor concentration, which yields the Ki value.
(§2) The following were added to a plastic cuvette: […] of ice cold assay buffer (25 mM HEPES, pH 7.8, 100 mM NaCl), 10 μL of CyP A (2.5 μM in 10 mM Tris-Cl pH 7.5, 100 mM NaCl, 1 mM dithiothreitol), 25 μL of chymotrypsin (50 mg/ml in 1 mM HCl), and 10 μL of test compound, at various concentrations, in dimethyl sulfoxide. The reaction was initiated by the addition of 5 μL of substrate (succinyl-Ala-Phe-Pro-Phe-para-nitroanilide, 5 mg/mL in 470 mM LiCl in trifluoroethanol). The absorbance at 390 nm versus time was monitored for 90 seconds using a spectrophotometer and the rate constants were determined from the absorbance versus time data files.
(§3) The IC50 values that were obtained for representative compounds in the following Table I refer to the concentration that inhibits 50% of the rotamase activity in a sample. […] The Cyclophilin utilized was a recombinant rat CyPA-GST fusion protein: CypA was amplified from rat brain cDNA using standard PCR methods, primed with the following sequences: 5′ CCCCCCGGGAGTCAACCCCACCGTGTTCTTCGA 3′ and 5′ GGAGATCTAGAGTTGTCCACAGTCGGAGATGGT 3′. The resulting fragment (573 base pairs) was cloned into pCRII and amplified. The CyP sequence was cut out with Smal and EcoRl and cloned into the Smal/EcoRl sites in pGEX2TK (Pharmacia). This plasmid was transformed into BL21 E. coli cells for expression of the GST-CyPA fusion protein.

In assay [2] the target is T1, human recombinant CyPA. In words: Semiautomated microtiter plate assay of rotamase activity inhibition. It counts as biochemical. Conditions: 30 minute preincubation at 4° C., read-out: IC50 (rotamase inhibition, modified plate reader assay). The protocol: Semiautomated Assay of Rotamase Activity Inhibition: Rotamase inhibition was determined using a semiautomated microtiter plate assay modification of the above described assay [see Küillertz et al., Clin. Chem. 44, 502-508 (1998)]. All dilutions of CyPA, peptide substrate, and chymotrypsin were made in 35 mM ice-cold HEPES buffer. Fifty μL of CyPA solution were added to 50 μL of peptide substrate solution (Phe-Pro-Phe p-nitroanilide, 0.16 mg/ml) in a glass microtiter well plate (the concentration of human recombinant CyP being adjusted so that the reaction rate is increased by a factor of 3 as compared to an uncatalyzed control reaction wherein the peptide substrate is degraded by chymotrypsin alone, in the absence of CyPA and test compound). Using a Beckman Multimek™ 96 automated 96-channel pipettor, 5 μL of test compound solution, or a DMSO blank, were added to each well for a 30 minute preincubation at 4° C. One hundred μL of chymotrypsin solution (1 mg/mL) were added to each well and the absorbance at 390 nm versus time was monitored for 9-10 minutes using a BioRad Ultramark plate reader maintained at 4° C. and the rate constants were determined from the absorbance versus time data files. The cyclophilin utilized was a human recombinant CyPA [Yoo et al., J. Mol. Biol., 269 (1997) 780-95].
IC50 values which were obtained for representative compounds using this modified plate reader assay of rotamase inhibition are given in the following Table II: […]

The target in assay [3] is T2, recombinant rat CyPA-GST fusion protein (Rattus norvegicus, UniProt P10111).
T2 construct: made in house; host or cells: E. coli BL21
T2 sequence (P10111 2-164): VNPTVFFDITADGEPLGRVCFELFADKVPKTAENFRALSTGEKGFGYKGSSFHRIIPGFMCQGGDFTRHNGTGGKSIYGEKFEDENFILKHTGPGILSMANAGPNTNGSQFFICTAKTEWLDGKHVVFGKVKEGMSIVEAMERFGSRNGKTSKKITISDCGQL
In words: Rotamase (prolyl peptidyl cis-trans isomerase) inhibition, chymotrypsin-coupled cuvette assay. Type of assay: biochemical.
Source text: as §1, §2, §3

Assay [4] deals with striatal tyrosine hydroxylase-immunoreactive fibres. Kind of assay: MPTP-lesioned mouse model of Parkinson's disease, striatal TH fiber density. It counts as in vivo. The following applies: 10 mg/kg s.c. in Intralipid once daily days 1-5, one hour prior to MPTP; analysis day seven. The source says:
MPTP (N-methyl-4-phenyl-1,2,3,6-tetrahydropyridine) is a systemically available neurotoxin specific to nigrostriatal dopaminergic neurons, i.e. to the cells that degenerate in human Parkinson's disease. Administration of MPTP to mice leads to a selective partial destruction of the mesotelencephalic dopaminergic projection, and to a loss of dopamine and dopaminergic fibres in the corpus striatum, which is the main forebrain target of midbrain dopaminergic neurons.
Young adult male CD1 albino mice (Harlan—Sprague Dawley; 22-25 g) were dosed i.p. with the dopamine cell-specific neurotoxin N-methyl-4-phenyl-1,2,3,6-tetrahydropyridine (MPTP hydrochloride, calculated as 34 mg/kg free base), dissolved in saline at a concentration of 3.4 mg/ml free base once daily on days one to five. […]
Blinded analysis of TH fiber density in the central striatum was performed at 630× magnification. […] The percentage of sample field covered by TH positive processes and terminals was calculated using an image analysis program (“Simple,” Compix Inc., Pittsburgh, Pa.). The mean striatal innervation density was calculated for each group. The magnitude of striatal deafferentation due to the MPTP lesion was assessed by dividing the observed striatal innervation values obtained in MPTP/vehicle treated cases by the mean striatal innervation density in the Vehicle/Vehicle group and expressed as % loss. […]

The mark [5] stands for this setting: human recombinant CyPA, values with asterisk, read-out: IC50 (rotamase activity).

T1 sequence (P62937 whole entry): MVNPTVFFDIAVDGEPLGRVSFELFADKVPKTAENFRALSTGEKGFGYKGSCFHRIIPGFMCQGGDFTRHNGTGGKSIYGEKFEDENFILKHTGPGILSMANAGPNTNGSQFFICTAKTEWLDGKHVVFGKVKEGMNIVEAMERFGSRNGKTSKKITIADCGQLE

As usually defined, the IC50 is the point on the concentration scale where inhibition reaches its midpoint. With `O=S(=O)(Oc1cccc(NC(=S)Nc2cc(Cl)cc(Cl)c2)c1)c1c(F)c(F)c(F)c(F)c1F` [Compound 22, 3-({[(3,5-dichlorophenyl)amino]thioxomethyl}amino)phenyl 2,3,4,5,6-pentafluorobenzenesulfonate], the IC50 in assay [1] (setting [5]) came to 733 nM.

With `O=C(NNC(=O)c1cccc(NC(=O)c2cccc(OCc3ccccc3)c2)c1)c1cc(Cl)cc(Cl)c1` [Compound 30, 1-{3-[(3-Benzyloxy)phenylcarboxamido]benzoyl}-2-(3,5-dichlorobenzoyl)hydrazine], the results for the IC50 in assay [1] (setting [5]) and in assay [2] were 464 nM and 3760 nM, respectively.

Turning to `O=C(CCCCc1ccccc1)Nc1cccc(C(=O)NNC(=S)Nc2ccc(Cl)c(Cl)c2)c1` [Compound 33, 1-{3-[(5-Phenyl)valeroylamino]benzoyl}-4-(3,4-dichlorophenyl)thiosemicarbazide], the IC50 in assay [1] (setting [5]) was found to be 85 nM; in assay [2], 713 nM.

Regarding `O=C(Nc1cccc(N(S(=O)(=O)c2ccc3ccccc3c2)S(=O)(=O)c2ccc3ccccc3c2)c1)c1cc(Cl)cc(Cl)c1` [Compound 8], the concentration for half-maximal inhibition (IC50) turned out to be 804 nM in assay [1] and 701 nM in assay [3].

Take `O=C(CCCCCc1cccc(C(F)(F)F)c1)Nc1cccc(C(=O)NNC(=S)Nc2ccc(Cl)c(Cl)c2)c1` [Compound 32, 1-{[1-Aza-2-oxo-7-(3-trifluoromethylphenyl)]heytyl}-3-{[5-(3 4-dichlorophenyl)-1-oxo-2,3,5-triaza-4-thio]pentyl}benzene]: the concentration for half-maximal inhibition (IC50) in assay [2] was determined as 154 nM.

With `O=C(CCCCc1ccccc1)Nc1ccc(C(=O)NNC(=S)Nc2ccc(Cl)c(Cl)c2)cc1` [Compound 43, 1-{4-[(5-Phenyl)pentanoylamino]benzoyl}-4-(3,4-dichlorophenyl)thiosemicarbazide], the IC50 in assay [2] was 1570 nM.

As for `O=C(NNS(=O)(=O)c1ccc(Cl)c(Cl)c1)c1cccc(NC(=O)c2cccc(OCc3ccccc3)c2)c1` [Compound 31, 1-{3-[(3-Benzyloxy)phenylcarboxamido]benzoyl}-2-(3,4-dichlorobenzenesulfonyl)hydrazine], the IC50 in assay [1] (setting [5]) amounted to 974 nM; in assay [2] it was 2710 nM.

On to `S=C(Nc1cc(Cl)cc(Cl)c1)Nc1cccc(C=NN(c2ccccc2)c2ccccc2)c1` [Compound 21, ({3-[2-aza-2-(diphenylamino)vinyl]phenyl}amino)[(3,5-dichlorophenyl)amino]methane-1-thione], for which the IC50 in assay [1] (setting [5]) was determined as 512 nM.

For the molecule `O=C(CCCCc1ccccc1)Nc1cccc(S(=O)(=O)NC(=O)Nc2ccc(Cl)c(Cl)c2)c1` [Compound 34B], the IC50 in assay [2] came out at 19100 nM.

In the case of `O=S(=O)(c1cc(Cl)cc(Cl)c1)N(c1cccc(N(S(=O)(=O)c2ccc3ccccc3c2)S(=O)(=O)c2ccc3ccccc3c2)c1)S(=O)(=O)c1cc(Cl)cc(Cl)c1` [Compound 9, (3-{Bis[(3,5-dichlorophenyl)sulfonyl]amino}phenyl)bis(2-naphthylsulfonyl)amine], in assay [2], the half-inhibitory concentration (IC50) is 309 nM.

Consider `O=C(CCCCCCc1ccccc1)Nc1cccc(C(=O)NNC(=S)Nc2ccc(Cl)c(Cl)c2)c1` [Compound 37, 1-{3-[(7-Phenyl)heptanoylamino]benzoyl}-4-(3,4-dichlorophenyl)thiosemicarbazide], for which the half-inhibitory concentration (IC50) in assay [2] is 532 nM.

With `S=C(Nc1ccc(I)cc1)NC1CCCCC1NC(=S)Nc1ccc(I)cc1` (stereo not drawn) [Compound 13, [(4-iodophenyl)amino]{[2-({[(4-iodophenyl)amino]thioxomethyl}amino)cyclohexyl]amino}methane-1-thione], the concentration for half-maximal inhibition (IC50) amounted to 680 nM in assay [3] (recombinant rat CyPA-GST fusion protein, values without asterisk, read-out: IC50 (rotamase activity)) and 2060 nM in assay [2].

`O=C(Nc1cccc(N(S(=O)(=O)c2cc(Cl)cc(Cl)c2)S(=O)(=O)c2cc(Cl)cc(Cl)c2)c1)c1cc(Cl)cc(Cl)c1` [Compound 8a]: the 50% inhibitory concentration (IC50) in assay [3] came to 364 nM. In addition, in assay [4], the “protection of striatal tyrosine hydroxylase-immunoreactive fibres” value is given as 37,2%.

Regarding `O=C(CCCCc1ccccc1)Nc1cccc(/C=N/NC(=S)Nc2ccc(Cl)c(Cl)c2)c1` [Compound 39, N-{3-[(1E)-2-aza-2-({[(3,4-dichlorophenyl)amino]thioxomethyl}amino)vinyl]phenyl}-5-phenylpentanamide], the half-maximal inhibitory concentration (IC50) in assay [2] turned out to be 1410 nM.

Turning to `O=C(CCCCc1ccccc1)Nc1cccc(-c2nnc(Nc3ccc(Cl)c(Cl)c3)s2)c1` [Compound 40A, 5-Phenyl-pentanoic acid {3-[5-(3,4-dichloro-phenylamino)-[1,3,4]thiadiazol-2-yl]-phenyl}-amide], in assay [2], the IC50 was found to be 2800 nM.
